Laboratory results taken from US7371207B2 (Wyeth, priority 2002, dated 2008).

Test system: gene expression in the kidney
Experiment: GeneChip microarray survey of E2 regulated gene expression, kidney
Experimental: FIG. 1 depicts a pattern analysis generated by a GeneChip microarray analysis. […] Two hours following the final dose, the mice were euthanized and 13 tissues removed for RNA preparation. Two independent studies were performed, with total RNA pooled from two groups of three animals for each condition. Gene expression was quantified by GeneChip microarrays using murine U74 sub A arrays. Data were analyzed for patterns indicating either ERα or ERβ dependent regulation as shown. […] The number of genes in each tissue that matched the theoretical induction (↑) or repression (↓) patterns for ERα or ERβ are indicated.
FIGS. 2A-2C show a series of bar graphs showing gene expression levels of known genes regulated in the kidney in an ERα pattern. […] Expression was measured in two independent sets of animals, with two groups of animals for each treatment in each study. A gene name abbreviation is shown above each graph, with the corresponding Unigene designation shown below.
One week later, the animals were ovariectomized.
GeneChip—Total RNA was prepared separately from each individual organ by using Trizol (Invitrogen) followed by subsequent repurification on Rneasy columns (Qiagen). In general, two pools of RNA were created using equal amounts of RNA from three mice. For small organs such as pituitary, an equal amount of RNA from six animals was combined.
Target Preparation and Array Hybridization—Total RNA was used to generate biotin labeled cRNA target as described (8) which was hybridized to the murine MG_U74Av2 probe arrays (Affymetrix, Santa Clara, Calif.) for 16 h at 45° C. Eleven biotin-labeled cRNAs at defined concentration were spiked into each hybridization and used to convert average difference values to frequencies expressed as parts per million.
The resulting data set was queried for genes whose regulation was dependent on ERα or ERβ.

C[C@]12CC[C@@H]3c4ccc(O)cc4CC[C@H]3[C@@H]1CC[C@@H]2O [E2, 17β-estradiol]
E2 Expr (/evansm/Kidney, mouse/Study 1, U74v2/WT E2 kidney (81036)) (101979_at, AF055638, growth arrest and DNA-damage-inducible 45 gamma): 42
E2 Expr (/evansm/Kidney, mouse/Study 1, U74v2/WT E2 kidney (81036)) (102693_f_at, J00389, kallikrein 13, kallikrein 26): 86
E2 Expr (/evansm/Kidney, mouse/Study 1, U74v2/WT E2 kidney (81036)) (102788_s_at, U70132, paired-like homeodomain transcription factor 2): 23
E2 Expr (/evansm/Kidney, mouse/Study 1, U74v2/WT E2 kidney (81036)) (103048_at, M12731, neuroblastoma myc-related oncogene 1): 39
E2 Expr (/evansm/Kidney, mouse/Study 1, U74v2/WT E2 kidney (81036)) (103556_at, AI840158, angiopoletin-like 2): 24
E2 Expr (/evansm/Kidney, mouse/Study 1, U74v2/WT E2 kidney (81036)) (103729_at, M36775, laminin, alpha 1): 17
E2 Expr (/evansm/Kidney, mouse/Study 1, U74v2/WT E2 kidney (81036)) (103739_at, AW230977, RIKEN cDNA 1110017N23 gene): 33
E2 Expr (/evansm/Kidney, mouse/Study 1, U74v2/WT E2 kidney (81036)) (104221_at, AB017189, solute carrier family 7 (cationic amino acid transporter, y+ system), member 5): 61
E2 Expr (/evansm/Kidney, mouse/Study 1, U74v2/WT E2 kidney (81036)) (104477_at, AW047643, Mm.29940): 15
E2 Expr (/evansm/Kidney, mouse/Study 1, U74v2/WT E2 kidney (81036)) (104495_f_at, Y00500, kallikrein 5): 115
E2 Expr (/evansm/Kidney, mouse/Study 1, U74v2/WT E2 kidney (81036)) (104497_f_at, X03994, kallikrein 8): 53
E2 Expr (/evansm/Kidney, mouse/Study 1, U74v2/WT E2 kidney (81036)) (104550_at, AW123273, ?CYP2S1 Cytochrome P450): 22
E2 Expr (/evansm/Kidney, mouse/Study 1, U74v2/WT E2 kidney (81036)) (104776_at, AA600617, Mm.33238): 4
E2 Expr (/evansm/Kidney, mouse/Study 1, U74v2/WT E2 kidney (81036)) (104880_at, AI843154, Mm.33730): 2
E2 Expr (/evansm/Kidney, mouse/Study 1, U74v2/WT E2 kidney (81036)) (105737_at, AI851277, Mm.39735): 8
E2 Expr (/evansm/Kidney, mouse/Study 1, U74v2/WT E2 kidney (81036)) (106195_at, AI851948, Mm.22808): 8
E2 Expr (/evansm/Kidney, mouse/Study 1, U74v2/WT E2 kidney (81036)) (107993_at, AI847249, Mm.27680): 9
E2 Expr (/evansm/Kidney, mouse/Study 1, U74v2/WT E2 kidney (81036)) (108265_at, AW120464, Mm.54158): 12
E2 Expr (/evansm/Kidney, mouse/Study 1, U74v2/WT E2 kidney (81036)) (108749_at, AA611885, Mm.23047): 34
E2 Expr (/evansm/Kidney, mouse/Study 1, U74v2/WT E2 kidney (81036)) (108851_at, AW125899, Ras-like protein): 10
E2 Expr (/evansm/Kidney, mouse/Study 1, U74v2/WT E2 kidney (81036)) (109176_at, AI846059, RAI17 Retinoic acid Induced 17): 79
E2 Expr (/evansm/Kidney, mouse/Study 1, U74v2/WT E2 kidney (81036)) (110591_at, AA270831, SH3 domain protien D19): 23
E2 Expr (/evansm/Kidney, mouse/Study 1, U74v2/WT E2 kidney (81036)) (110767_r_at, AA959550, vascular endothelial growth factor): 37
E2 Expr (/evansm/Kidney, mouse/Study 1, U74v2/WT E2 kidney (81036)) (110850_at, AA959574, NRIP1 Nuclear receptor interacting protein 1, RIP140): 76
E2 Expr (/evansm/Kidney, mouse/Study 1, U74v2/WT E2 kidney (81036)) (111046_r_at, AI957367, 17b dehydrogenase A homolog): 17
E2 Expr (/evansm/Kidney, mouse/Study 1, U74v2/WT E2 kidney (81036)) (113125_at, AI851671, signal transducer and activator of transcription 5B): 31
E2 Expr (/evansm/Kidney, mouse/Study 1, U74v2/WT E2 kidney (81036)) (114903_at, AI447633, Mm.26357): 96
E2 Expr (/evansm/Kidney, mouse/Study 1, U74v2/WT E2 kidney (81036)) (116273_at, AW123862, Mm.31953): 7
E2 Expr (/evansm/Kidney, mouse/Study 1, U74v2/WT E2 kidney (81036)) (117208_at, AI838208, RIKEN cDNA 1110003O08 gene): 37
E2 Expr (/evansm/Kidney, mouse/Study 1, U74v2/WT E2 kidney (81036)) (129147_r_at, AI931796, similar to TYROSINE-PROTEIN KINASE RECEPTOR TIE-1 PRECURSOR): 6
E2 Expr (/evansm/Kidney, mouse/Study 1, U74v2/WT E2 kidney (81036)) (131149_at, AW214502, RIKEN cDNA 5033417D07 gene): 7
E2 Expr (/evansm/Kidney, mouse/Study 1, U74v2/WT E2 kidney (81036)) (131226_at, AI842542, Mm.23157): 8
E2 Expr (/evansm/Kidney, mouse/Study 1, U74v2/WT E2 kidney (81036)) (132403_at, AI788603, similar to TSC1_RAT HAMARTIN (TUBEROUS SCLEROSIS 1 PROTEIN HOMOLOG)): 19
E2 Expr (/evansm/Kidney, mouse/Study 1, U74v2/WT E2 kidney (81036)) (133139_at, AW122295, regulator of G-protein signaling 4): 4
E2 Expr (/evansm/Kidney, mouse/Study 1, U74v2/WT E2 kidney (81036)) (133672_at, AI451032, Mm.32389): 11
E2 Expr (/evansm/Kidney, mouse/Study 1, U74v2/WT E2 kidney (81036)) (134303_at, AI553493, Mm.35319): 11
E2 Expr (/evansm/Kidney, mouse/Study 1, U74v2/WT E2 kidney (81036)) (136270_at, AI854101, Highly similar to CRFB MOUSE CORTICOTROPIN-RELEASING FACTOR BINDING PROTEIN PRECURSOR): 12
E2 Expr (/evansm/Kidney, mouse/Study 1, U74v2/WT E2 kidney (81036)) (137525_at, AI098139, Mm.38027): 4
E2 Expr (/evansm/Kidney, mouse/Study 1, U74v2/WT E2 kidney (81036)) (139531_at, AW120795, Mm.45188): 40
E2 Expr (/evansm/Kidney, mouse/Study 1, U74v2/WT E2 kidney (81036)) (162645_at, AI851427, protein kinase, cAMP dependent regulatory, type II beta): 11
E2 Expr (/evansm/Kidney, mouse/Study 1, U74v2/WT E2 kidney (81036)) (162964_at, AI854153, regulator of G-protein signaling 4): 11
E2 Expr (/evansm/Kidney, mouse/Study 1, U74v2/WT E2 kidney (81036)) (162969_at, AW123298, Edil3 EGF-like repeats and discordin I-like domains 3): 34
E2 Expr (/evansm/Kidney, mouse/Study 1, U74v2/WT E2 kidney (81036)) (162976_at, AI838662, RIKEN cDNA 2700007F12 gene): 10
E2 Expr (/evansm/Kidney, mouse/Study 1, U74v2/WT E2 kidney (81036)) (163186_at, AI852882, RIKEN cDNA 2610510B01 gene): 61
E2 Expr (/evansm/Kidney, mouse/Study 1, U74v2/WT E2 kidney (81036)) (163224_at, AI843147, IGSF1 Immunoglobulin superfamily, member 1): 27
E2 Expr (/evansm/Kidney, mouse/Study 1, U74v2/WT E2 kidney (81036)) (163370_at, AI591488, Osbpl3 Oxysterol binding protien-like 3): 10
E2 Expr (/evansm/Kidney, mouse/Study 1, U74v2/WT E2 kidney (81036)) (163941_at, AI646761, RIKEN cDNA 1110018J23 gene): 71
E2 Expr (/evansm/Kidney, mouse/Study 1, U74v2/WT E2 kidney (81036)) (164051_at, AV359458, Mm.17850): 195
E2 Expr (/evansm/Kidney, mouse/Study 1, U74v2/WT E2 kidney (81036)) (164520_f_at, AV302474, Tmprss2 Transmembrane protease, serine 2): 6
E2 Expr (/evansm/Kidney, mouse/Study 1, U74v2/WT E2 kidney (81036)) (165032_i_at, AV365688, RIKEN cDNA 4933429H19 gene): 42
E2 Expr (/evansm/Kidney, mouse/Study 1, U74v2/WT E2 kidney (81036)) (165248_f_at, AV035328, placental lactogen 2): 38
E2 Expr (/evansm/Kidney, mouse/Study 1, U74v2/WT E2 kidney (81036)) (165569_at, AI847273, Mm.22305): 5
E2 Expr (/evansm/Kidney, mouse/Study 1, U74v2/WT E2 kidney (81036)) (165678_i_at, AI482191, Mm.33178): 11
E2 Expr (/evansm/Kidney, mouse/Study 1, U74v2/WT E2 kidney (81036)) (165710_at, AA815844, sodium channel, nonvoltage-gated 1 gamma): 9
E2 Expr (/evansm/Kidney, mouse/Study 1, U74v2/WT E2 kidney (81036)) (165772_at, AI851899, RIKEN cDNA 0610039J01 gene): 29
E2 Expr (/evansm/Kidney, mouse/Study 1, U74v2/WT E2 kidney (81036)) (165866_f_at, AV291803, ribosomal protein L12): 40
E2 Expr (/evansm/Kidney, mouse/Study 1, U74v2/WT E2 kidney (81036)) (166021_at, AI481830, Mm.49448): 12
E2 Expr (/evansm/Kidney, mouse/Study 1, U74v2/WT E2 kidney (81036)) (166843_at, AI851523, Mm.200318): 174
E2 Expr (/evansm/Kidney, mouse/Study 1, U74v2/WT E2 kidney (81036)) (166849_at, AI853080, Mm.40718): 16
E2 Expr (/evansm/Kidney, mouse/Study 1, U74v2/WT E2 kidney (81036)) (167023_f_at, AV016619, biglycan): 3
E2 Expr (/evansm/Kidney, mouse/Study 1, U74v2/WT E2 kidney (81036)) (168876_f_at, AV044014, kallikrein 21): 75
E2 Expr (/evansm/Kidney, mouse/Study 1, U74v2/WT E2 kidney (81036)) (169068_i_at, AV206066, RIKEN cDNA 4930434J08 gene): 2
E2 Expr (/evansm/Kidney, mouse/Study 1, U74v2/WT E2 kidney (81036)) (170686_f_at, AV362687, Mm.89845): 58
E2 Expr (/evansm/Kidney, mouse/Study 1, U74v2/WT E2 kidney (81036)) (170896_at, AV066592, Immune associated nucleotide 4): 3
E2 Expr (/evansm/Kidney, mouse/Study 1, U74v2/WT E2 kidney (81036)) (171390_i_at, AV299689, Mm.21070): 3
ABCC3 expression in kidney (mRNA level): induced mRNA levels
NTT73 expression in kidney (mRNA level): increased mRNA levels
CIS2 expression in kidney (mouse, in vivo): induction
COR1 (RDC1) expression in kidney (mouse, in vivo): induced expression
CYP27B1 expression in kidney (mouse, in vivo): induction
ELF3 expression in kidney (mouse, in vivo): induced expression
GNBP3 expression in kidney (mouse, in vivo): induced expression
PHD2 expression in kidney (mouse, in vivo): induced expression
RGS3 expression in kidney (mouse, in vivo): induced expression
STAT5A expression in kidney (mouse, in vivo): induced expression
STAT5B expression in kidney (mouse, in vivo): induced expression
